The assay deals with microfilariae of Dirofilaria immitis. Briefly: Dirofilaria immitis, Microfilaria (DiMF) In vitro Assay. Type of assay: cell-based. As to conditions: 72 h, read-out: DiMF Minimum Effective Dose (MED), approximately 72 hours incubation, microfilariae assessed for survival or paralysis.

In the case of `CC(C)C[C@H]1C(=O)O[C@H](Cc2ccc(Cn3cc(OC(F)F)cn3)cc2)C(=O)N(C)[C@@H](CC(C)C)C(=O)O[C@H](C)C(=O)N(C)[C@@H](CC(C)C)C(=O)O[C@H](Cc2ccc(Cn3cc(OC(F)F)cn3)cc2)C(=O)N(C)[C@@H](CC(C)C)C(=O)O[C@H](C)C(=O)N1C` [Example 1b-140, (3S,6R,9S,12R,15S,18R,21S,24R)-6,18-bis(4-((4-(difluoromethoxy)-1H-pyrazol-1-yl)methyl)benzyl)-3,9,15,21-tetraisobutyl-4,10,12,16,22,24-hexamethyl-1,7,13,19-tetraoxa-4,10,16,22-tetraazacyclotetracosan-2,5,8,11,14,17,20,23-octaone], the minimal effective concentration fell in the range of 0.01 to 0.1 µM.

For the compound `CC(C)C[C@H]1C(=O)O[C@H](Cc2cccc(Cn3nc(CO)cc3CO)c2)C(=O)N(C)[C@@H](CC(C)C)C(=O)O[C@H](C)C(=O)N(C)[C@@H](CC(C)C)C(=O)O[C@H](Cc2ccccc2)C(=O)N(C)[C@@H](CC(C)C)C(=O)O[C@H](C)C(=O)N1C` [Example 5-4, (3S,6R,9S,12R,15S,18R,21S,24R)-6-benzyl-18-(3-((3,5-bis(hydroxymethyl)-1H-pyrazol-1-yl)methyl)benzyl)-3,9,15,21-tetraisobutyl-4,10,12,16,22,24-hexamethyl-1,7,13,19-tetraoxa-4,10,16,22-tetraazacyclotetracosan-2,5,8,11,14,17,20,23-octaone], the minimal effective concentration was 0.01 to 0.1 µM.

In the case of `CC(C)C[C@H]1C(=O)O[C@H](Cc2ccc(CN3CC(CO)OC3=O)cc2)C(=O)N(C)[C@@H](CC(C)C)C(=O)O[C@H](C)C(=O)N(C)[C@@H](CC(C)C)C(=O)O[C@H](Cc2ccccc2)C(=O)N(C)[C@@H](CC(C)C)C(=O)O[C@H](C)C(=O)N1C` (stereo partly drawn) [Example 10-24, (3S,6R,9S,12R,15S,18R,21S,24R)-6-benzyl-18-(4-((5-(hydroxymethyl)-2-oxooxazolidin-3-yl)methyl)benzyl)-3,9,15,21-tetraisobutyl-4,10,12,16,22,24-hexamethyl-1,7,13,19-tetraoxa-4,10,16,22-tetraazacyclotetracosan-2,5,8,11,14,17,20,23-octaone], the minimal effective concentration fell in the range of 0.01 to 0.1 µM.

Consider `CC(C)C[C@H]1C(=O)O[C@H](Cc2ccc(Cn3nnc4ccccc43)cc2)C(=O)N(C)[C@@H](CC(C)C)C(=O)O[C@H](C)C(=O)N(C)[C@@H](CC(C)C)C(=O)O[C@H](Cc2ccc(Cn3nnc4ccccc43)cc2)C(=O)N(C)[C@@H](CC(C)C)C(=O)O[C@H](C)C(=O)N1C` [Example 9-29, (3S,6R,9S,12R,15S,18R,21S,24R)-6,18-bis(4-((1H-benzo[d][1,2,3]triazol-1-yl)methyl)benzyl)-3,9,15,21-tetraisobutyl-4,10,12,16,22,24-hexamethyl-1,7,13,19-tetraoxa-4,10,16,22-tetraazacyclotetracosan-2,5,8,11,14,17,20,23-octaone], for which the minimal effective concentration was 0.01 to 0.1 µM.

Turning to `CC(C)C[C@H]1C(=O)O[C@H](Cc2ccc(Cn3cc(S(=O)(=O)N4CCCC4)cn3)cc2)C(=O)N(C)[C@@H](CC(C)C)C(=O)O[C@H](C)C(=O)N(C)[C@@H](CC(C)C)C(=O)O[C@H](Cc2ccccc2)C(=O)N(C)[C@@H](CC(C)C)C(=O)O[C@H](C)C(=O)N1C` [Example 2-24, (3S,6R,9S,12R,15S,18R,21S,24R)-6-benzyl-3,9,15,21-tetraisobutyl-4,10,12,16,22,24-hexamethyl-18-(4-((4-(pyrrolidin-1-ylsulfonyl)-1H-pyrazol-1-yl)methyl)benzyl)-1,7,13,19-tetraoxa-4,10,16,22-tetraazacyclotetracosan-2,5,8,11,14,17,20,23-octaone], the minimal effective concentration is 0.01 to 0.1 µM.

Consider `CC(C)C[C@H]1C(=O)O[C@H](Cc2ccc(Cn3cc(S(=O)(=O)N4CCOCC4)cn3)cc2)C(=O)N(C)[C@@H](CC(C)C)C(=O)O[C@H](C)C(=O)N(C)[C@@H](CC(C)C)C(=O)O[C@H](Cc2ccccc2)C(=O)N(C)[C@@H](CC(C)C)C(=O)O[C@H](C)C(=O)N1C` [Example 2-23, (3S,6R,9S,12R,15S,18R,21S,24R)-6-benzyl-3,9,15,21-tetraisobutyl-4,10,12,16,22,24-hexamethyl-18-(4-((4-(morpholinosulfonyl)-1H-pyrazol-1-yl)methyl)benzyl)-1,7,13,19-tetraoxa-4,10,16,22-tetraazacyclotetracosan-2,5,8,11,14,17,20,23-octaone], for which the minimal effective concentration lay in the range of 0.01 to 0.1 µM.

Regarding `Cc1cnn(Cc2ccc(C[C@H]3OC(=O)[C@H](CC(C)C)N(C)C(=O)[C@@H](C)OC(=O)[C@H](CC(C)C)N(C)C(=O)[C@@H](Cc4ccc(Cn5cc(C(F)(F)F)cn5)cc4)OC(=O)[C@H](CC(C)C)N(C)C(=O)[C@@H](C)OC(=O)[C@H](CC(C)C)N(C)C3=O)cc2)c1` [Example 1a-30, (3S,6R,9S,12R,15S,18R,21S,24R)-3,9,15,21-tetraisobutyl-4,6,10,16,18,22-hexamethyl-12-(4-((4-methyl-1H-pyrazol-1-yl)methyl)benzyl)-24-(4-((4-(trifluoromethyl)-1H-pyrazol-1-yl)methyl)benzyl)-1,7,13,19-tetraoxa-4,10,16,22-tetraazacyclotetracosan-2,5,8,11,14,17,20,23-octaone], the minimal effective concentration lay within 0.01 to 0.1 µM.

For `CC(C)C[C@H]1C(=O)O[C@H](Cc2cccc(Cn3nc(C#N)cc3C#N)c2)C(=O)N(C)[C@@H](CC(C)C)C(=O)O[C@H](C)C(=O)N(C)[C@@H](CC(C)C)C(=O)O[C@H](Cc2cccc(Cn3nc(C#N)cc3C#N)c2)C(=O)N(C)[C@@H](CC(C)C)C(=O)O[C@H](C)C(=O)N1C` [Example 4-14, 1,1′-(((((2R,5S,8R,11S,14R,17S,20R,23S)-5, 11,17,23-tetraisobutyl-4,8,10,16,20,22-hexamethyl-3,6,9,12,15,18,21,24-octaoxo-1,7,13,19-tetraoxa-4,10,16,22-tetraazacyclotetracosane-2,14-diyl)bis(methylene))bis(3,1-phenylene))bis(methylene))bis(1H-pyrazole-3,5-dicarbonitrile)], the minimal effective concentration was 0.001 to 0.01 µM.

As for `COc1ccc(OCc2cn(Cc3ccc(C[C@H]4OC(=O)[C@H](CC(C)C)N(C)C(=O)[C@@H](C)OC(=O)[C@H](CC(C)C)N(C)C(=O)[C@@H](Cc5ccccc5)OC(=O)[C@H](CC(C)C)N(C)C(=O)[C@@H](C)OC(=O)[C@H](CC(C)C)N(C)C4=O)cc3)nn2)cc1` [Example 10-22, (3S,6R,9S,12R,15S,18R,21S,24R)-6-benzyl-3,9,15,21-tetraisobutyl-18-(4-((4-((4-methoxyphenoxy)methyl)-1H-1,2,3-triazol-1-yl)methyl)benzyl)-4,10,12,16,22,24-hexamethyl-1,7,13,19-tetraoxa-4,10,16,22-tetraazacyclotetracosan-2,5,8,11,14,17,20,23-octaone], the minimal effective concentration lay within 0.01 to 0.1 µM.

For the compound `CC(C)C[C@H]1C(=O)O[C@H](Cc2ccc(Cn3ccc(C#N)n3)cc2)C(=O)N(C)[C@@H](CC(C)C)C(=O)O[C@H](C)C(=O)N(C)[C@@H](CC(C)C)C(=O)O[C@H](Cc2ccc(Cn3ccc(C#N)n3)cc2)C(=O)N(C)[C@@H](CC(C)C)C(=O)O[C@H](C)C(=O)N1C` [Example 1b-103, 1,1′-(((((2R,5S,8R,11S,14R,17S,20R,23S)-5,11,17,23-tetraisobutyl-4,8,10,16,20,22-hexamethyl-3,6,9,12,15,18,21,24-octaoxo-1,7,13,19-tetraoxa-4,10,16,22-tetraazacyclotetracosane-2,14-diyl)bis(methylene))bis(4,1-phenylene))bis(methylene))bis(1H-pyrazole-3-carbonitrile)], the minimal effective concentration was 0.001 to 0.01 µM.

As to `CC(C)C[C@H]1C(=O)O[C@H](Cc2ccc(Cn3cc(-c4ccccc4)cn3)cc2)C(=O)N(C)[C@@H](CC(C)C)C(=O)O[C@H](C)C(=O)N(C)[C@@H](CC(C)C)C(=O)O[C@H](Cc2ccccc2)C(=O)N(C)[C@@H](CC(C)C)C(=O)O[C@H](C)C(=O)N1C` [Example 2-3, (3S,6R,9S,12R,15S,18R,21S,24R)-6-benzyl-3,9,15,21-tetraisobutyl-4,10,12,16,22,24-hexamethyl-18-[[4-[(4-phenylpyrazol-1-yl)methyl]phenyl]methyl]-1,7,13,19-tetraoxa-4,10,16,22-tetrazacyclotetracosane-2,5,8,11,14,17,20,23-octaone], the minimal effective concentration is 0.01 to 0.1 µM.

With `CC(C)C[C@H]1C(=O)O[C@H](Cc2ccc(Cn3cc(CO)nn3)cc2)C(=O)N(C)[C@@H](CC(C)C)C(=O)O[C@H](C)C(=O)N(C)[C@@H](CC(C)C)C(=O)O[C@H](Cc2ccccc2)C(=O)N(C)[C@@H](CC(C)C)C(=O)O[C@H](C)C(=O)N1C` [Example 10-19, (3S,6R,9S,12R,15S,18R,21S,24R)-6-benzyl-18-(4-((4-(hydroxymethyl)-1H-1,2,3-triazol-1-yl)methyl)benzyl)-3,9,15,21-tetraisobutyl-4,10,12,16,22,24-hexamethyl-1,7,13,19-tetraoxa-4,10,16,22-tetraazacyclotetracosan-2,5,8,11,14,17,20,23-octaone], the minimal effective concentration was 0.01 to 0.1 µM.

For `CC(C)C[C@H]1C(=O)O[C@H](Cc2ccc(CN3CCS(=O)(=O)c4ccccc43)cc2)C(=O)N(C)[C@@H](CC(C)C)C(=O)O[C@H](C)C(=O)N(C)[C@@H](CC(C)C)C(=O)O[C@H](Cc2ccc(CN3CCS(=O)(=O)c4ccccc43)cc2)C(=O)N(C)[C@@H](CC(C)C)C(=O)O[C@H](C)C(=O)N1C` [Example 10-33, (3S,6R,9S,12R,15S,18R,21S,24R)-6,18-bis(4-((1,1-dioxido-2,3-dihydro-4H-benzo[b][1,4]thiazin-4-yl)methyl)benzyl)-3,9,15,21-tetraisobutyl-4,10,12,16,22,24-hexamethyl-1,7,13,19-tetraoxa-4, 10,16,22-tetraazacyclotetracosan-2,5,8,11,14,17,20,23-octaone], the minimal effective concentration lay in the range of 0.01 to 0.1 µM.

With `CSc1cnn(Cc2ccc(C[C@H]3OC(=O)[C@H](CC(C)C)N(C)C(=O)[C@@H](C)OC(=O)[C@H](CC(C)C)N(C)C(=O)[C@@H](Cc4ccc(Cn5cc(SC)cn5)cc4)OC(=O)[C@H](CC(C)C)N(C)C(=O)[C@@H](C)OC(=O)[C@H](CC(C)C)N(C)C3=O)cc2)c1` [Example 1b-20, (3S,6R,9S,12R,15S,18R,21S,24R)-3,9,15,21-tetraisobutyl-4,6,10,16,18,22-hexamethyl-12,24-bis[[4-[(4-methylsulfanylpyrazol-1-yl)methyl]phenyl]methyl]-1,7,13,19-tetraoxa-4,10,16,22-tetrazacyclotetracosane-2,5,8,11,14,17,20,23-octaone], the minimal effective concentration fell in the range of 0.01 to 0.1 µM.

The values above are taken from patent US11331369B2, “Endoparasitic depsipeptides” (Zoetis Services LLC, priority 2017, dated 2022).
